# In patent publication US10683453B2, “Organic compounds with soluble groups” (Merck Patent GmbH, priority 2014, dated 2020):
# Test: Determination of solubility in toluene
# Type: physicochemical
# Conditions: stirred at 60° C. for 1 h, cooled to room temperature, yes = clear solution lacking any large particles
# Procedure: Determination of Solubility
# In order to examine whether a material has a toluene solubility of 10 mg/ml or more, the procedure is as follows: 20 mg of material in solid form are initially charged in a sample bottle. At room temperature (20° C.), 2 ml of toluene are added. The bottle is closed and the contents are stirred at 60° C. on a heatable magnetic stirrer for 1 h. In the course of this, good thermal contact is ensured by means of an aluminium block having holes into which the bottles fit exactly. After 1 h, the bottle is removed and left to cool to room temperature. If a clear solution lacking any large particles is present in the bottle, at least 10 mg/ml of the material are soluble in toluene.
# Solubilities with other solubility limits are determined in entirely the same way. The starting weight is also matched to 2 ml of solvent.
SMILES,Solubility in toluene > 2 mg/ml,Solubility in toluene > 5 mg/ml,Solubility in toluene > 10 mg/ml
"N#Cc1ccc2c(c1)C1(c3cc(C#N)ccc3-2)c2ccccc2N(c2cc(-c3ccccc3)cc(-c3ccccc3)c2)c2ccccc21 [Compound 6a, 2′,7′-Cyano-10H-terphenyl-10H-spiro(acridine-9,9′-fluorene)]",yes,yes,no
CCCCCCc1cc(CCCCCC)cc(N2c3ccccc3C3(c4ccccc4C(=C(C#N)C#N)c4ccccc43)c3ccccc32)c1 [Compound 9a],yes,yes,yes
N#CC(C#N)=C1c2ccccc2C2(c3ccccc31)c1ccccc1N(c1c(-c3ccccc3)cc(-c3ccccc3)cc1-c1ccccc1)c1ccccc12 [Compound 9e],yes,yes,no

# The remaining lines, values ahead:
Solubility in toluene > 2 mg/ml,Solubility in toluene > 5 mg/ml,Solubility in toluene > 10 mg/ml,SMILES
yes,yes,yes,CCCCCCc1ccc2c(c1)c1cc(CCCCCC)ccc1n2-c1c(C#N)c(-n2c3ccc(CCCCCC)cc3c3cc(CCCCCC)ccc32)c(C#N)c(-n2c3ccc(CCCCCC)cc3c3cc(CCCCCC)ccc32)c1C#N [Compound 19d]
yes,no,no,N#Cc1c(-n2c3ccccc3c3ccccc32)c(C#N)c(-n2c3ccccc3c3ccccc32)c(-n2c3ccccc3c3ccccc32)c1-n1c2ccccc2c2ccccc21 [reference compound]
no,no,no,N#Cc1ccc2c(c1)C1(c3cc(C#N)ccc3-2)c2ccccc2N(c2ccccc2)c2ccccc21 [reference compound]
yes,no,no,N#CC(C#N)=C1c2ccccc2C2(c3ccccc31)c1ccccc1N(c1ccccc1)c1ccccc12 [reference compound]
